# Assay results as given in patent publication US9474759B2 (priority 2011, dated 2016).
# Like-named read-outs stand apart in the source and are kept apart here.
# How the values were obtained:
# FCV = test: Cell culture system, FCV replication in CRFK cells (Example 3); type: cell-based, feline calicivirus; details: Feline calicivirus; cell-based assay, CRFK cells; read-out: IC50 against FCV replication
# 229E = test: Cell-based screening, 229E in MRC-5 cells (Example 2); details: Human coronavirus 229E, MRC5; MRC-5 cells; read-out: Inhibition [ED50 (μM)] against various viruses: Coronavirus, 229E
# Experimental: 3. Cell-based screening of inhibitor. The effects of each inhibitor on the viral replication were examined. The list of viruses and corresponding cell lines are listed above in Table 2. Briefly, confluent cells were inoculated with virus at a MOI of 5 or 0.05 for 1 hr, and medium was replaced with medium containing mock-medium or each compound (up to 100 μM). The virus infected cells were further incubated for up to 96 hrs, and the replication of virus was measured by TCID50 assay with the 10-fold dilution of each sample used for virus titration (Reed and Muench, 1938). In some viruses, the virus protein and genome expression levels were detected by Western blot analysis and real-time qRT-PCR, respectively, as described below. The IC50s of the compounds were calculated.
# FIPV-1146 = FIPV-1146 replication in CRFK cells, TCID50 method; type: cell-based, feline coronavirus; details: Alphacoronavirus 1, MOI 0.05, mean ± SEM
# Experimental: Crandell Rees feline kidney (CRFK) cells were maintained in minimal essential medium containing 2-5% fetal bovine serum and antibiotics (chlortetracycline [25 μg/ml], penicillin [250 U/ml], and streptomycin [250 μg/ml]). FIPV WSU 79-1146 and FECV WSU 79-1683 strains are the prototypes of serotype II FIPV or FECV, respectively, and were purchased from ATCC (Manassas, Va.).
# The cells were further incubated in the presence of each compound for 1 hr at 37° C. Then […] or FECV-1683 was inoculated to the cells at a multiplicity of infection (MOI) of 0.05 or 5.
# b. TCID50 Method. A standard TCID50 method with the 10-fold dilution of each sample was used for virus titration.
# HG23 cells = details: human
smiles,measurement,setting,value
CC(C)C[C@H](NC(=O)OCc1ccccc1)C(=O)N[C@H](C=O)C[C@@H]1CCNC1=O [GC373],IC50,FCV,65 µM
same,EC50,229E,0.2 µM
same,EC50,"FIPV-1146; 24 hr post infection, read-out: Inhibition [ED50 (μM)] against FIPV-1146, 24 hrs",0.07 ± 0.04 µM
same,EC50,"FIPV-1146; 48 hr post infection, read-out: Inhibition [ED50 (μM)] against FIPV-1146, 48 hrs",0.43 ± 0.35 µM
same,"TD50, median toxic dose",HG23 cells,> 320 µM
